One experiment deals with T1, Kv1.3 potassium channel (Homo sapiens, UniProt P22001).
T1 construct: expressed in transfected cells
Kind of experiment: Kv1.3 potassium channel blocker activity, automated whole-cell patch clamp (Patchliner) in CHO-K1 cells stably expressing Kv1.3. Type of experiment: cell-based. As to conditions: 30 nM-100 μM. The gist of the method:
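Whole-cell automated patch clamp in CHO-K1 cells, pH 7.4 external/7.2 internal; 100 ms steps from −90 to +40 mV at 0.1 Hz, 20-pulse trains. Cumulative 30 nM–100 μM on one cell, ≤10 s per concentration; last-pulse current normalized to control, IC50 from Hill fit.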
In general terms: Patch clamp records ionic current or voltage across a cell membrane.

The target in the next experiment is T2, hERG channel (Homo sapiens, UniProt Q12809).
T2 construct: expressed in transfected cells
Kind of experiment: hERG electrophysiology, automated whole-cell patch clamp (Patchliner) in CHO-K1 cells stably expressing hERG. Particulars: 30 nM-100 μM. Type of experiment: cell-based. As to the method: This assay is used to evaluate the disclosed compounds' inhibition activities against the hERG channel.
CHO-K1 cells stably expressing hERG were grown in Ham's F-12 Medium with glutamine containing 10% heat-inactivated FBS, 1% penicillin/streptomycin, hygromycin (100 μg/ml) and G418 (100 μg/ml). Cells were grown in culture flasks at 37° C. in a 5% CO2-humidified incubator.
The cells were bathed in an extracellular solution containing 140 mM NaCl, 4 mM KCl, 2 mM CaCl2), 1 mM MgCl2, 5 mM Glucose, 10 mM HEPES; pH adjusted to 7.4 with NaOH; 295-305 mOsm. The internal solution contained 50 mM KCl, 10 mM NaCl, 60 mM KF, 20 mM EGTA, 10 mM HEPES; pH adjusted to 7.2 with KOH; 285 mOsm. All compounds were dissolved in DMSO at 30 mM. Compound stock solutions were freshly diluted with external solution to concentrations of 30 nM, 100 nM, 300 nM, 1 μM, 3 μM, 10 μM, 30 μM and 100 μM. The highest content of DMSO (0.3%) was present in 100 μM.
The voltage protocol (see Table B) was designed to simulate voltage changes during a cardiac action potential with a 300 ms depolarization to +20 mV (analogous to the plateau phase of the cardiac action potential), a repolarization for 300 ms to −50 mV (inducing a tail current) and a final step to the holding potential of −80 mV. The pulse frequency was 0.3 Hz. Control (compound-free) and compound pulse trains for each compound concentration applied contained 70 pulses.
Whole-cell current recordings and compound application were enabled by means of an automated patch clamp platform Patchliner (Nanion). EPC 10 patch clamp amplifier (HEKA) along with Patchmaster software (HEKA Elektronik Dr. Schulze GmbH) was used for data acquisition. Data were sampled at 10 kHz without filtering. Increasing compound concentrations were applied consecutively to the same cell without washouts in between.
AUC and PEAK values were obtained with Patchmaster (HEKA Elektronik Dr. Schulze GmbH). To determine IC50 the last single pulse in the pulse train corresponding to a given compound concentration was used. Obtained AUC and PEAK values in the presence of compound were normalized to control values in the absence of compound. Using Origin (OridinLab), IC50 was derived from data fit to Hill equation: Icompound/Icontrol=(100−A)/(1+([compound]/IC50)nH)+A, where IC50 is the concentration at which current inhibition is half-maximal, [compound] is the applied compound concentration, A is the fraction of current that is not blocked and nH is the Hill coefficient.
(hERG is a cardiac potassium channel; its block is linked to QT prolongation.)

We go through 28 compounds from US20240391926A1, “SPIROINDOLINONE COMPOUNDS AS Kv1.3 POTASSIUM SHAKER CHANNEL BLOCKERS” (D.E. Shaw Research, LLC, priority 2021, published 2024).

Some results are limits rather than exact numbers.

T1 sequence (P22001 whole entry): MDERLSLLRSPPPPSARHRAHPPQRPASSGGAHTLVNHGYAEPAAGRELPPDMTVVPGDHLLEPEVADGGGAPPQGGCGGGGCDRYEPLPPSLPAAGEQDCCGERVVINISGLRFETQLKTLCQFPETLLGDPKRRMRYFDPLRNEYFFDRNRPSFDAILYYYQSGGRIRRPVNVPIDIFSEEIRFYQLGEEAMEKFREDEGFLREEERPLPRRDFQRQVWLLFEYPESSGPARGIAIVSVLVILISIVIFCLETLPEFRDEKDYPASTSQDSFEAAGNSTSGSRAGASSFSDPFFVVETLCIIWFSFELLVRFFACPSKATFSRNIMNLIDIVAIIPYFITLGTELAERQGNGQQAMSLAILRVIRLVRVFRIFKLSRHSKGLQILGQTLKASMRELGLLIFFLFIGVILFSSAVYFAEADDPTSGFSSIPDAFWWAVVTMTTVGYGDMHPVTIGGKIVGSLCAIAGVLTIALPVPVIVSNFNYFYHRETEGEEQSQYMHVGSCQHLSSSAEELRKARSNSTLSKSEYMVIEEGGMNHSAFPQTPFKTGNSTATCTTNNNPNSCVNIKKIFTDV
T2 sequence (Q12809 whole entry): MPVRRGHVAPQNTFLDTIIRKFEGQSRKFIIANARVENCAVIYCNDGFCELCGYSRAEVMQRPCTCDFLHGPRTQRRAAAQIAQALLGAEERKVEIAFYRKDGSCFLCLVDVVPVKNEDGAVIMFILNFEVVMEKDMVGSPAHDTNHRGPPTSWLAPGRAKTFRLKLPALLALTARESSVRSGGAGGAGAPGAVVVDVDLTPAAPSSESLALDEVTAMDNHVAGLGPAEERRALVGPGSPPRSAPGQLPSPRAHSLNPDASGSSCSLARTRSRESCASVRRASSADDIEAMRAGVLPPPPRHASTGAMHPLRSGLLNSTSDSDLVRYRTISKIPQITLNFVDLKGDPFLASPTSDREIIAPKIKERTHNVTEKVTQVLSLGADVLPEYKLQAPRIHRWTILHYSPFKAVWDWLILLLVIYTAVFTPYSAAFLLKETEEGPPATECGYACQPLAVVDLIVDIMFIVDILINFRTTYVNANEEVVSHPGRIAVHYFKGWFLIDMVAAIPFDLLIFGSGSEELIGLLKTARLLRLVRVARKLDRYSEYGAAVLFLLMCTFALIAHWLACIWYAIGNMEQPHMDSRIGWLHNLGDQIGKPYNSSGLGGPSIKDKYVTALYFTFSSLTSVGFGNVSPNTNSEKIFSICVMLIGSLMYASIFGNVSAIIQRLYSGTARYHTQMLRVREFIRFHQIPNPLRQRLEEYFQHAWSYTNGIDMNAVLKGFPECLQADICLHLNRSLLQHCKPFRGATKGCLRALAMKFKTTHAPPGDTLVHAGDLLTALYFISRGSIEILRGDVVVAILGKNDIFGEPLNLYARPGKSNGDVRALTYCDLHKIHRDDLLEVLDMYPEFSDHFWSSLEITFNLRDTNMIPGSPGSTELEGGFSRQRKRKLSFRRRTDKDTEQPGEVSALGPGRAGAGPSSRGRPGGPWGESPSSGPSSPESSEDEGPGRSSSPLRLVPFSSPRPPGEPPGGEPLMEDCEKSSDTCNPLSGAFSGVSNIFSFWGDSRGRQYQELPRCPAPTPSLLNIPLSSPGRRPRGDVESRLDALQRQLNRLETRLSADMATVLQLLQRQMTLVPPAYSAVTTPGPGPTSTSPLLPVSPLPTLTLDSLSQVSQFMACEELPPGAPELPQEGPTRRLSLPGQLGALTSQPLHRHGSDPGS

Consider `O=C(C[C@H]1CCNC1)N1CC[C@]2(C1)C(=O)Nc1cc(Cl)c(Cl)cc12` [Compound 62, (S)-5,6-dichloro-1′-(2-((R)-pyrrolidin-3-yl)acetyl)spiro[indoline-3,3′-pyrrolidin]-2-one], for which the results for the concentration for half-maximal inhibition (IC50) against Kv1.3 potassium channel and against hERG channel were under 0.3 µM and over 100 µM, respectively.
Regarding `Cc1cc2c(cc1Cl)[C@]1(CCN(C(=O)CO)C1)C(=O)N2` [Compound 120, (S)-5-chloro-1′-(2-hydroxyacetyl)-6-methylspiro[indoline-3,3′-pyrrolidin]-2-one], the figures for the half-inhibitory concentration (IC50) on Kv1.3 potassium channel and against hERG channel were under 3 µM and over 100 µM, respectively.
For `O=C1Nc2cc(Cl)c(Cl)cc2[C@]12CCN(C(=O)[C@H]1C[C@](O)(CO)C1)C2` [Compound 93, (3S)-5,6-dichloro-1′-[(1r,3r)-3-hydroxy-3-(hydroxymethyl)cyclobutanecarbonyl]-1H-spiro[indole-3,3′-pyrrolidin]-2-one], the IC50 (usually the concentration that inhibits the measured activity by half) against Kv1.3 potassium channel was under 1 µM; on hERG channel, over 100 µM.
With `O=C(C[C@@H]1CCNC1)N1CC[C@]2(C1)C(=O)Nc1cc(Cl)c(Cl)cc12` [Compound 60, (S)-5,6-dichloro-1′-(2-((S)-pyrrolidin-3-yl)acetyl)spiro[indoline-3,3′-pyrrolidin]-2-one], the IC50 on Kv1.3 potassium channel is under 0.3 µM; against hERG channel, over 100 µM.
With `O=C(c1cc[nH]n1)N1CC[C@]2(C1)C(=O)Nc1cc(Cl)c(Cl)cc12` [Compound 53, (S)-5,6-dichloro-1′-(1H-pyrazole-3-carbonyl)spiro[indoline-3,3′-pyrrolidin]-2-one], the values for the IC50 against Kv1.3 potassium channel and against hERG channel were under 3 µM and over 10 µM, respectively.
`O=C([C@@H]1CN[C@@H](CO)C1)N1CC[C@]2(C1)C(=O)Nc1cc(Cl)c(Cl)cc12` [Compound 115, (S)-5,6-dichloro-1′-((3S,5R)-5-(hydroxymethyl)pyrrolidine-3-carbonyl)spiro[indoline-3,3′-pyrrolidin]-2-one]: the half-inhibitory concentration (IC50) was under 0.1 µM against Kv1.3 potassium channel and over 100 µM against hERG channel.
As for `O=C(N1CC[C@]2(C1)C(=O)Nc1cc(Cl)c(Cl)cc12)[C@]1(F)CCCNC1` [Compound 49, (S)-5,6-dichloro-1′-((S)-3-fluoropiperidine-3-carbonyl)spiro[indoline-3,3′-pyrrolidin]-2-one], the results for the half-maximal inhibitory concentration (IC50) on Kv1.3 potassium channel and at hERG channel were under 0.3 µM and over 3 µM, respectively.
For `O=C(CO)N1CC[C@]2(C1)C(=O)Nc1c2cc(Cl)c(Cl)c1F` [Compound 128, (S)-5,6-dichloro-7-fluoro-1′-(2-hydroxyacetyl)spiro[indoline-3,3′-pyrrolidin]-2-one] the same measures were under 0.3 µM and over 100 µM.
Regarding `O=C(C1CCNCC1)N1CC[C@]2(C1)C(=O)Nc1cc(Cl)c(Cl)cc12` [Compound 21, (S)-5,6-dichloro-1′-(piperidine-4-carbonyl)spiro[indoline-3,3′-pyrrolidin]-2-one], the figures for the half-maximal inhibitory concentration (IC50) against Kv1.3 potassium channel and against hERG channel were under 1 µM and over 100 µM, respectively.
For `O=C([C@@H]1CC[C@@H](O)[C@H](O)C1)N1CC[C@]2(C1)C(=O)Nc1cc(Cl)c(Cl)cc12` (single isomer, unassigned; isomer 2) [Compound 104] the same measures were under 0.3 µM and over 100 µM.
As for `C[C@@H](O)C(=O)N1CC[C@]2(C1)C(=O)Nc1cc(Cl)c(Cl)cc12` [Compound 13, (S)-5,6-dichloro-1′-((R)-2-hydroxypropanoyl)spiro[indoline-3,3′-pyrrolidin]-2-one], the IC50 at Kv1.3 potassium channel was under 1 µM; against hERG channel, over 100 µM.
For `O=C([C@@H]1CCCNC1)N1CC[C@]2(C1)C(=O)Nc1cc(Cl)c(Cl)cc12` [Compound 17, (S)-5,6-dichloro-1′-((R)-piperidine-3-carbonyl)spiro[indoline-3,3′-pyrrolidin]-2-one], the results for the IC50 against Kv1.3 potassium channel and on hERG channel were under 0.3 µM and over 100 µM, respectively.
Compound `O=C([C@H]1CNCCO1)N1CC[C@]2(C1)C(=O)Nc1cc(Cl)c(Cl)cc12` [Compound 10, (S)-5,6-dichloro-1′-((R)-morpholine-2-carbonyl)spiro[indoline-3,3′-pyrrolidin]-2-one] came in with an IC50 against Kv1.3 potassium channel of under 1 µM.
With `O=C1Nc2cc(Cl)c(Cl)cc2[C@]12CCN(C(=O)[C@H]1C[C@H](O)C1)C2` [Compound 27, (S)-5,6-dichloro-1′-((1r,3S)-3-hydroxycyclobutane-1-carbonyl)spiro[indoline-3,3′-pyrrolidin]-2-one], on Kv1.3 potassium channel, the half-inhibitory concentration (IC50) is under 3 µM.
On Kv1.3 potassium channel, `O=C(CO)N1CC[C@]2(C1)C(=O)Nc1cc(Cl)c(Br)cc12` [Compound 118, (S)-5-bromo-6-chloro-1′-(2-hydroxyacetyl)spiro[indoline-3,3′-pyrrolidin]-2-one] showed a half-inhibitory concentration (IC50) of under 1 µM.
The same measure, in the same setting: the result for `O=C1C[C@H](C(=O)N2CC[C@]3(C2)C(=O)Nc2cc(Cl)c(Cl)cc23)CN1` (single isomer, unassigned; isomer 1) [Compound 74] reads under 1 µM; that for `NC[C@H](O)C(=O)N1CC[C@]2(C1)C(=O)Nc1cc(Cl)c(Cl)cc12` [Compound 54, (S)-1′-((S)-3-amino-2-hydroxypropanoyl)-5,6-dichlorospiro[indoline-3,3′-pyrrolidin]-2-one], under 3 µM; that for `O=C([C@H](O)CO)N1CC[C@]2(C1)C(=O)Nc1cc(Cl)c(Cl)cc12` [Compound 159, (S)-5,6-dichloro-1′-((R)-2,3-dihydroxypropanoyl)spiro[indoline-3,3′-pyrrolidin]-2-one], under 3 µM.
`CC(C)C[C@H](N)C(=O)N1CC[C@]2(C1)C(=O)Nc1cc(Cl)c(Cl)cc12` [Compound 45, (S)-1′-(L-leucyl)-5,6-dichlorospiro[indoline-3,3′-pyrrolidin]-2-one]: the IC50 on Kv1.3 potassium channel was under 3 µM.
Consider `O=C(c1cn[nH]n1)N1CC[C@]2(C1)C(=O)Nc1cc(Cl)c(Cl)cc12` [Compound 137, (S)-5,6-dichloro-1′-(1H-1,2,3-triazole-4-carbonyl)spiro[indoline-3,3′-pyrrolidin]-2-one], for which, on Kv1.3 potassium channel, the 50% inhibitory concentration (IC50) is under 1 µM.
Still for that read-out and setting: the same measure for `O=C(C[C@@H]1CCCN1)N1CC[C@]2(C1)C(=O)Nc1cc(Cl)c(Cl)cc12` [Compound 61, (S)-5,6-dichloro-1′-(2-((S)-pyrrolidin-2-yl)acetyl)spiro[indoline-3,3′-pyrrolidin]-2-one]: under 1 µM.
The compound `NS(=O)(=O)N1CC[C@]2(C1)C(=O)Nc1cc(Cl)c(Cl)cc12` [Compound 142, (S)-5,6-dichloro-2-oxospiro[indoline-3,3′-pyrrolidine]-1′-sulfonamide] yielded an IC50 against Kv1.3 potassium channel of under 3 µM.
In turn, `CC(C)(O)C(=O)N1CC[C@]2(C1)C(=O)Nc1cc(Cl)c(Cl)cc12` [Compound 86, (S)-5,6-dichloro-1′-(2-hydroxy-2-methylpropanoyl)spiro[indoline-3,3′-pyrrolidin]-2-one] yielded a 50% inhibitory concentration (IC50) on Kv1.3 potassium channel of under 3 µM.
As for `O=C([C@@H](O)CO)N1CC[C@]2(C1)C(=O)Nc1cc(Cl)c(Cl)cc12` [Compound 157, (S)-5,6-dichloro-1′-((S)-2,3-dihydroxypropanoyl)spiro[indoline-3,3′-pyrrolidin]-2-one], on Kv1.3 potassium channel, the half-maximal inhibitory concentration (IC50) was under 1 µM.
The same measure, in the same setting: the same measure for `O=C([C@@H]1C[C@H]1CO)N1CC[C@]2(C1)C(=O)Nc1cc(Cl)c(Cl)cc12` (relative stereo) [Compound 150, (S)-5,6-dichloro-1′-(1R,2R)-rel-2-(hydroxymethyl)cyclopropane-1-carbonyl)spiro[indoline-3,3′-pyrrolidin]-2-one]: under 1 µM.
In turn, `C[C@@H]1N(C(=O)CO)CCC12C(=O)Nc1cc(Cl)c(Cl)cc12` (single isomer, unassigned; diastereoisomer 1) [Compound 133, 5,6-dichloro-1′-(2-hydroxyacetyl)-2′-methylspiro[indoline-3,3′-pyrrolidin]-2-one diastereoisomer 1] registered an IC50 against Kv1.3 potassium channel of under 3 µM.
In the case of `O=C([C@@H]1CNCCO1)N1CC[C@]2(C1)C(=O)Nc1cc(Cl)c(Cl)cc12` [Compound 11, (S)-5,6-dichloro-1′-((S)-morpholine-2-carbonyl)spiro[indoline-3,3′-pyrrolidin]-2-one], the IC50 on Kv1.3 potassium channel is under 3 µM.
`O=C(CC1CNC1)N1CC[C@]2(C1)C(=O)Nc1cc(Cl)c(Cl)cc12` [Compound 26, (S)-1′-(2-(azetidin-3-yl)acetyl)-5,6-dichlorospiro[indoline-3,3′-pyrrolidin]-2-one] yielded a 50% inhibitory concentration (IC50) against Kv1.3 potassium channel of under 1 µM.
